Patent US20230020329A1, “Annelated 9-hydroxy-1,8-dioxo-1,3,4,8-tetrahydro-2H-pyrido[1,2-a]pyrazine-7-carboxamides as HIV integrase inhibitors, methods of preparation and application thereof” (priority 2019, published 2023)
In brackets after ≈: the same amount, converted by molar mass. Read-outs that look alike come from different tables or passages of the source.

What was measured:
HIV-1 (IIIB strain) = test: Anti-HIV cytoprotection assay (XTT), HIV-1 IIIB in CEM-SS cells; type: cell-based; conditions: CEM-SS cell line, read-out: Inhibitory activity (EC50) against HIV-1 (IIIB strain)
Procedure, shortened: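 CEM-SS cells infected with a pre-titrated virus dose killing 85–95% of cells by day 6; protection from HIV-induced death read by XTT formazan. Compounds screened in triplicate at 30 and 10 nM, actives retested at 2 nM; AZT six-concentration curve on each plate as positive control.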

[1] = Thermodynamic (shake-flask) solubility; type: physicochemical; conditions: for solubility at 24 h: thermodynamic from solid
Method: The test compound of general formula 1 or 2 (2 mg) was weighed into a glass vial. The pION universal buffer (0.5 ml) with pH 7.4 or deionized water was added to appropriate vials. The vials were tightly closed with a lid, placed on a rotating shaker, and incubated for 24 hours to balance the solution and the solid phase at the saturation point. Each resulting solution (200 μl) was taken (in duplicate) from the vials, placed in a 96-well MultiScreen Solubility Filter Plate (Millipore), and filtered using vacuum ([…]) into a polypropylene plate with a U-shaped bottom. If necessary, the filtrates were diluted with an appropriate buffer (water). Then, 120 μl of the filtarate (or a diluted filtrate) was transferred to a 96-well plate with a UV-transparent bottom and 60 μl/well of acetonitrile and 20 μl/well of DMSO were added and thoroughly mixed with a multichannel pipette (acetonitrile and DMSO were added to obtain a required composition of calibration standards, as described below). The optical density of the resulting solutions was measured on a multifunction Infinite 200 PRO plate reader in the wavelength range from 240 nm to 400 nm in steps of 10 nm. The value of ODλ for solutions was assessed at a wavelength chosen for plotting a calibration curve.
The concentration of a substance in the solution after the solubility test was evaluated using a calibration curve. A stock solution in DMSO with a concentration of 2 mg/ml was prepared from a separate sample. […] The range of final concentrations of the calibration curve was 0.2; 0.1; 0.05; 0.025; 0.0125; 0.00625, and 0 mg/ml. Calibration solutions were prepared in a 96-well UV plate as follows: 20 μl of a 10-fold stock solution in DMSO, 60 μl of acetonitrile, and 120 μl of the appropriate buffer were added to the well and stirred. The optical density of the resulting solutions was measured on a multifunction Infinite 200 PRO plate reader in the wavelength range from 240 nm to 400 nm with a step of 10 nm. The optimal wavelength typically corresponding to the absorption maximum was chosen, and a linear dependence of OD at a given wavelength on the concentration of the compound was obtained.
The concentration of the compound in the filtrate after the solubility test was calculated according to the formula:
shake-flask solubility=(ODλfiltrate−ODλblank)/(slope×1.67×filtrate dilution)
wherein slope means the slope of the calibration curve; 1.67 is the filtrate acetonitrile+DMSO dilution ratio; filtrate dilution is an additional dilution of the filtrate, if applicable.

[2] = Human immunodeficiency virus 1, IIIB, CEM-SS
[3] = aqueous buffer, pION universal buffer pH 7.4, 24 h, read-out: Solubility, pH 7.4, value
[4] = deionized water, 24 h, read-out: Solubility, water, value
[5] = deionized water, water, read-out: Solubility in water

EC50 (HIV-1 (IIIB strain); [2]) | solubility at 24 h [1, 3] | solubility at 24 h [1, 4] | SMILES | EC50 (HIV-1 (IIIB strain)) | Solubility, water, value ([1]; deionized water, 24 h) | solubility at 24 h [1, 5]
1.44 nM | 24 µg/mL (≈ 63.9 µM) | 33 µg/mL (≈ 87.9 µM) | C[C@H]1CO[C@@H]2Cn3cc(C(=O)NCc4cccs4)c(=O)c(O)c3C(=O)N12 [Compound 1.1.1, (3S,11aR)-6-hydroxy-3-methyl-5,7-dioxo-N-(2-thienylmethyl)-2,3,5,7,11,11a-hexahydro[1,3]oxazolo[3,2-a]pyrido[1,2-d]pyrazine-8-carboxamide] | – | – | –
0.59 nM | 318 µg/mL (≈ 719 µM) | 318 µg/mL (≈ 719 µM) | C[C@H]1CO[C@@H]2Cn3cc(C(=O)NCc4nn(C)c(Cl)c4Cl)c(=O)c(O)c3C(=O)N12 [Compound 1.1.7, (3S,11aR)-6-hydroxy-N-[(4,5-dichloro-1-methyl-1H-pyrazol-3-yl)methyl]3-methyl-5,7-dioxo-2,3,5,7,11,11a-hexahydro[1,3]oxazolo[3,2-a]pyrido[1,2-d]pyrazine-8-carboxamide] | – | – | –
10 to 30 nM | 91 µg/mL (≈ 234 µM) | 78 µg/mL (≈ 201 µM) | C[C@H]1CO[C@@H]2Cn3cc(C(=O)NCc4ccncc4F)c(=O)c(O)c3C(=O)N12 [Compound 1.1.23, (3S,11aR)-6-hydroxy-3-methyl-N-[(3-fluoropyridin-4-yl)methyl]-5,7-dioxo-2,3,5,7,11,11a-hexahydro[1,3]oxazolo[3,2-a]pyrido[1,2-d]pyrazine-8-carboxamide] | – | – | –
2.63 nM | 380 µg/mL (≈ 935 µM) | 347 µg/mL (≈ 854 µM) | C[C@H]1CO[C@@H]2Cn3cc(C(=O)NCc4c(F)cncc4F)c(=O)c(O)c3C(=O)N12 [Compound 1.1.24, (3S,11aR)-6-hydroxy-N-[(3,5-difluoropyridin-4-yl)methyl]-3-methyl-5,7-dioxo-2,3,5,7,11,11a-hexahydro[1,3]oxazolo[3,2-a]pyrido[1,2-d]pyrazine-8-carboxamide] | – | – | –
10 to 30 nM | 70 µg/mL (≈ 159 µM) | 56 µg/mL (≈ 127 µM) | Cc1cc2c(cc1CNC(=O)c1cn3c(c(O)c1=O)C(=O)N1[C@@H](C)CO[C@@H]1C3)OCCO2 [Compound 1.1.36, (3S,11aR)-6-hydroxy-3-methyl-N-[(7-methyl-2,3-dihydro-1,4-benzodioxin-6-yl)methyl]-5,7-dioxo-2,3,5,7,11,11a-hexahydro[1,3]oxazolo[3,2-a]pyrido[1,2-d]pyrazine-8-carboxamide] | – | – | –
1.93 nM | 21 µg/mL (≈ 49.2 µM) | 21 µg/mL (≈ 49.2 µM) | C[C@H]1CO[C@@H]2Cn3cc(C(=O)NCc4nc5ccccc5s4)c(=O)c(O)c3C(=O)N12 [Compound 1.1.37, (3S,11aR)-N-(1,3-benzothiazol-2-ylmethyl)-6-hydroxy-3-methyl-5,7-dioxo-2,3,5,7,11,11a-hexahydro[1,3]oxazolo[3,2-a]pyrido[1,2-d]pyrazine-8-carboxamide] | – | – | –
0.43 nM | 3.2 µg/mL (≈ 7.78 µM) | – | C[C@H]1CO[C@@H]2Cn3cc(C(=O)NCc4ccc5nonc5c4)c(=O)c(O)c3C(=O)N12 [Compound 1.1.48, (3S,11aR)-N-(2,1,3-benzoxadiazol-5-ylmethyl)-6-hydroxy-3-methyl-5,7-dioxo-2,3,5,7,11,11a-hexahydro[1,3]oxazolo[3,2-a]pyrido[1,2-d]pyrazine-8-carboxamide] | – | 2.85 µg/mL (≈ 6.93 µM) | 2.85 µg/mL (≈ 6.93 µM)
2 to 10 nM | 8 µg/mL (≈ 18.4 µM) | 31 µg/mL (≈ 71.4 µM) | Cc1cc(CNC(=O)c2cn3c(c(O)c2=O)C(=O)N2[C@@H](C)CO[C@@H]2C3)c2ccccc2n1 [Compound 1.1.51, (3S,11aR)-6-hydroxy-3-methyl-N-(2-methylquinolin-4-ylmethyl)-5,7-dioxo-2,3,5,7,11,11a-hexahydro[1,3]oxazolo[3,2-a]pyrido[1,2-d]pyrazine-8-carboxamide] | – | – | –
2.17 nM | 6 µg/mL (≈ 14.3 µM) | 10 µg/mL (≈ 23.8 µM) | C[C@H]1CO[C@@H]2Cn3cc(C(=O)NCc4cccc5cccnc45)c(=O)c(O)c3C(=O)N12 [Compound 1.1.54, (3S,11aR)-6-hydroxy-3-methyl-N-(quinolin-8-ylmethyl)-5,7-dioxo-2,3,5,7,11,11a-hexahydro[1,3]oxazolo[3,2-a]pyrido[1,2-d]pyrazine-8-carboxamide] | – | – | –
5.15 nM | 80 µg/mL (≈ 190 µM) | 57 µg/mL (≈ 136 µM) | C[C@@H]1CCO[C@H]2Cn3cc(C(=O)NCc4ccc(F)nc4F)c(=O)c(O)c3C(=O)N12 [Compound 1.2.1, (4R,12aS)-7-hydroxy-N-[(2,6-difluoropyridin-3-yl)methyl]-4-methyl-6,8-dioxo-3,4,6,8,12,12a-hexahydro-2H-pyrido[1′,2′:4,5]pyrazino[2,1-b][1,3]oxazine-9-carboxamide] | – | – | –
2 to 10 nM | – | – | C[C@@H]1CO[C@@]23CCC[C@@H]2n2cc(C(=O)NCc4ccc(F)nc4F)c(=O)c(O)c2C(=O)N13 [Compound 2.1.1, (3aS,6R,13aS)-9-hydroxy-N-[(2,6-difluoropyridin-3-yl)methyl]-6-methyl-8,10-dioxo-1,2,3,5,6,8,10,13a-octahydrocyclopenta[b][1,3]oxazolo[3,2-a]pyrido[1,2-d]pyrazine-11-carboxamide] | – | – | –
2 to 10 nM | – | – | C[C@@H]1CO[C@@]23CCC[C@@H]2n2cc(C(=O)NCc4c(F)cncc4F)c(=O)c(O)c2C(=O)N13 [Compound 2.1.2, (3aS,6R,13aS)-9-hydroxy-N-[(3,5-difluoropyridin-4-yl)methyl]-6-methyl-8,10-dioxo-1,2,3,5,6,8,10,13a-octahydrocyclopenta[b][1,3]oxazolo[3,2-a]pyrido[1,2-d]pyrazine-11-carboxamide] | – | – | –
2 to 10 nM | – | – | C[C@@H]1CO[C@@]23CCC[C@@H]2n2cc(C(=O)NCc4c(F)cc(F)nc4F)c(=O)c(O)c2C(=O)N13 [Compound 2.1.3, (3aS,6R,13aS)-9-hydroxy-6-methyl-N-[(2,4,6-trifluoropyridin-3-yl)methyl]-8,10-dioxo-1,2,3,5,6,8,10,13a-octahydrocyclopenta[b][1,3]oxazolo[3,2-a]pyrido[1,2-d]pyrazine-11-carboxamide] | – | – | –
~10 nM | – | – | C[C@H]1CO[C@@]23CCC[C@@H]2n2cc(C(=O)NCc4ccc(F)nc4F)c(=O)c(O)c2C(=O)N13 [Compound 2.2.1, (3aS,6S,13aS)-9-hydroxy-N-[(2,6-difluoropyridin-3-yl)methyl]-6-methyl-8,10-dioxo-1,2,3,5,6,8,10,13a-octahydrocyclopenta[b][1,3]oxazolo[3,2-a]pyrido[1,2-d]pyrazine-11-carboxamide] | – | – | –
2 to 10 nM | – | – | C[C@H]1CO[C@@]23CCC[C@@H]2n2cc(C(=O)NCc4c(F)cc(F)nc4F)c(=O)c(O)c2C(=O)N13 [Compound 2.2.3, (3aS,6S,13aS)-9-hydroxy-6-methyl-N-[(2,4,6-trifluoropyridin-3-yl)methyl]-8,10-dioxo-1,2,3,5,6,8,10,13a-octahydrocyclopenta[b][1,3]oxazolo[3,2-a]pyrido[1,2-d]pyrazine-11-carboxamide] | – | – | –

SMILES | EC50 (HIV-1 (IIIB strain); [2]) | solubility at 24 h [1, 3] | solubility at 24 h [1, 4] | EC50 (HIV-1 (IIIB strain)) | Solubility, water, value ([1]; deionized water, 24 h) | solubility at 24 h [1, 5]
C[C@H]1CO[C@@H]2Cn3cc(C(=O)NCc4ccc(F)nc4F)c(=O)c([O-])c3C(=O)N12.[Na+] [Compound 1.1.20, Sodium (3S,11aR)-8-({[(2,6-difluoropyridin-3-yl)methyl]amino}carbonyl)-3-methyl-5,7-dioxo-2,3,5,7,11,11a-hexahydro[1,3]oxazolo[3,2-a]pyrido[1,2-d]pyrazin-6-olate] | – | 1680 µg/mL | – | 4.8 nM | 2679 µg/mL | 2680 µg/mL
